Reference: patent US20090036496A1, “Treatment of Stress Urinary Incontinence and Mixed Urinary Incontinence” (UROGENE, priority 2005, published 2009)

Experiments:
[1] = tested on: alpha1-adrenergic receptors; experiment: Contraction of isolated rabbit urethra rings by activation of alpha1-adrenergic receptors; details: for contraction of the urethra induced by the compound itself: cumulative concentrations 0.01 to 100 μM, relative to norepinephrine 30 μM
Protocol: The compounds were tested in ex vivo experiments carried out on rabbit urethra.
The tests were carried out on isolates of rabbit urethra which were obtained as follows.
The whole urethra was excised and washed in order to remove the adipose and connective tissues, and then cut into rings approximately 4 mm in diameter, one at the median level, the other at the distal level of the urethra.
In this trial, the ability of each of the four compounds mentioned above to induce, by themselves, a contraction of the urethra by activation of the alpha1-adrenergic receptors, compared with norepinephrine used as a positive control, is measured.
The protocol followed is an adaptation of the protocol described by Van der Graaf et al. (Eur. J. Pharmacol., 327: 25-32, 1997).
Krebs-Henseleit solution was modified by adding propanolol (1 μM), normetanephrin (1 μM), desipramine (0.1 μM) and deoxycorticosterone (3 μM) in order to block the beta-adrenergic receptors, catechol-O-methyltransferase and the uptake of noradrenalin type 1 (neuronal) and 2 (extraneuronal), respectively.
An initial force of 1 g is applied to the samples. After a period of 60 minutes of equilibration, the rings are brought into contact with norepinephrine (30 μM), twice consecutively, separated by washing for 60 minutes. The rings that have a contractile response of less than 1 g are discarded and new rings are optionally prepared. After washing for 30 minutes, the compound tested is added at cumulative concentrations ranging from 0.01 to 100 μM. In parallel, the solvent of the compound (distilled water or DMSO) is tested thereon so as to obtain a control curve.
In the case of HP748, an additional experiment was carried out in which prazosin (1 μM), an alpha1-adrenergic receptor antagonist, was incubated for 30 minutes before the addition of HP748.
The results are expressed as percentage of the contraction induced by the second addition of norepinephrine at 30 μM as a function of the concentration of the compound. The latter is represented on a logarithmic scale, by the logarithm of the value in mol/l.

[2] = tested on: female New Zealand white rabbits; experiment: Continuous cystometry under irritated bladder conditions (0.5% acetic acid infusion); type: in vivo, rabbit; details: for bladder capacity: p<0.01
Protocol: (§1) The effects of cumulative doses of HP749 (0, 1, 3 and 5 mg/kg i.v.), or duloxetine (0, 1 and 2 mg/kg i.v.) on the electromyographic and cystometric parameters were evaluated in anaesthetized female New Zealand white rabbits (n=12/group) under irritated conditions (continuous transvesical infusion of 0.5% acetic acid). The study was performed in accordance with the ethical standards of the Helsinki declaration.
Continuous cystometry was performed with the animal supine using a subcutaneous cystostomy. A T tube was connected to the multiperforable plug using a 20-gauge needle, online with a TRA021 pressure transducer and a micro-injection pump. Room-temperature diluted acetic acid was infused into the bladder at a rate of 1.4 ml/hr to elicit repetitive voidings, which allowed collection of data for a large number of voiding cycles. Continuous cystometry was recorded on a PowerLab 4/25.
(§2) At the beginning of the cystometry the bladder was emptied. The liquid infusion to stabilize the cyclic voidings was maintained at least for 60 minutes, continuously recording the cystometrogram. Then, placebo was intravenously administered, and the cystometrogram was recorded for other 40 minutes. Consecutive doses of duloxetine or HP749 were then administered with an interval of 40 minutes.
(§3) An intravenous cannula was connected to the ear vein for vehicle (saline) or drug administration. The drugs were freshly prepared before each experiment in saline. Drugs were administered intravenously in a volume of 1 ml. followed by 1 ml. flush of physiological saline.
(§4) All values were expressed as the mean±SEM. Duloxetine or HP749 effects were analyzed and compared with control (saline) values using Wilcoxon rank test. Mann-Whitney U test was performed to compare the effects of duloxetine and HP-749. Statistical significance was considered at p<0.05.

[3] = tested on: female New Zealand white rabbits; experiment: Electromyography of striated sphincter (SS-EMG) under irritated bladder conditions; type: in vivo, rabbit
Protocol: as §1, §2
Two electrodes (30-gauge needle) were placed percutaneously into the striated anal sphincter approximately 5-10 mm. lateral to the anus. […] SS-EMG was continuously recorded during the cystometry.
as §3, §4

Structure (SMILES): CCCN(c1ccncc1)n1ccc2ccccc21 [HP749, N-propyl-N-(4-pyridinyl)-1H-indol-1-amine]
- contraction of the urethra induced by the compound itself [1]: no effect
- bladder capacity ([2]; 1 mg/kg i.v.): 172 % of the control
- bladder capacity ([2]; 5 mg/kg i.v.): 235 % of the control
- effect on bladder capacity compared with duloxetine ([2]; Mann-Whitney U test, p<0.05): significantly higher than those of duloxetine
- effect on SS-EMG compared with duloxetine ([3]; Mann-Whitney U test, p<0.05): significantly higher than those of duloxetine
- SS-EMG increase ([3]; all doses tested (1, 3 and 5 mg/kg i.v.), p<0.01): 2.5 fold

Structure (SMILES): CNCC[C@H](Oc1cccc2ccccc12)c1cccs1 [duloxetine, reference compound]
- bladder capacity ([2]; duloxetine 1 and 2 mg/kg i.v. cumulative): increased dose-dependently
- SS-EMG activity ([3]; 2 mg./kg i.v., p<0.01): significantly increased

Structure (SMILES): Cc1cn(Nc2ccncc2F)c2ccccc12 [HP183, reference compound]
- contraction of the urethra induced by the compound itself [1]: no effect

Structure (SMILES): c1ccc2c(c1)ccn2Nc1ccncc1 [HP748, N-(4-pyridinyl)-1H-indol-1-amine]
- contraction of the urethra induced by the compound itself [1]: induces a significant contraction
- contraction of the urethra after preincubation with prazosin ([1]; preincubation with 1 μM of prazosin for 30 minutes): completely blocked

Structure (SMILES): CCCN(c1ccncc1F)n1cc(C)c2ccccc21 [HP184, reference compound]
- contraction of the urethra induced by the compound itself [1]: no effect
